According to patent US9873704B2, “Heterocyclic compounds and their uses” (Amgen Inc., priority 2009, dated 2018):

molecular target: T1, PI3Kδ (Homo sapiens, UniProt O00329); assay: PI3Kδ Alphascreen assay; type: biochemical
T1 construct: Full length p110 subunits of PI3k α, β and δ, N-terminally labeled with polyHis tag; polyHis (N); made in house; host or cells: Sf9 insect cells (baculovirus)
Description: Full length p110 subunits of PI3k α, β and δ, N-terminally labeled with polyHis tag, were coexpressed with p85 with Baculo virus expression vectors in sf9 insect cells. P110/p85 heterodimers were purified by sequential Ni-NTA, Q-HP, Superdex-100 chromatography. Purified α, β and δ isozymes were stored at −20° C. in 20 mM Tris, pH 8, 0.2M NaCl, 50% glycerol, 5 mM DTT, 2 mM Na cholate. […] The γ isozyme was purified by sequential Ni-NTA, Superdex-200, Q-HP chromatography. The γ isozyme was stored frozen at −80° C. in NaH2PO4, pH 8, 0.2M NaCl, 1% ethylene glycol, 2 mM β-mercaptoethanol.
A PI3K Alphascreen® assay (PerkinElmer, Waltham, Mass.) was used to measure the activity of a panel of four phosphoinositide 3-kinases: PI3Kα, PI3Kβ, PI3Kγ, and PI3Kδ. Enzyme reaction buffer was prepared using sterile water (Baxter, Deerfield, Ill.) and 50 mM Tris HCl pH 7, 14 mM MgCl2, 2 mM sodium cholate, and 100 mM NaCl. 2 mM DTT was added fresh the day of the experiment. The Alphascreen buffer was made using sterile water and 10 mM Tris HCl pH 7.5, 150 mM NaCl, 0.10% Tween 20, and 30 mM EDTA. 1 mM DTT was added fresh the day of the experiment. Compound source plates used for this assay were 384-well Greiner clear polypropylene plates containing test compounds at 5 mM and diluted 1:2 over 22 concentrations. Columns 23 and 24 contained only DMSO as these wells comprised the positive and negative controls, respectively. Source plates were replicated by transferring 0.5 uL per well into 384-well Optiplates (PerkinElmer, Waltham, Mass.).
Each PI3K isoform was diluted in enzyme reaction buffer to 2× working stocks. […] PI(4,5)P2 (Echelon Biosciences, Salt Lake City, Utah) was diluted to 10 μM and ATP was diluted to 20 μM. This 2× stock was used in the assays for PI3Kα and PI3Kβ. For assay of PI3Kγ and PI3Kδ, PI(4,5)P2 was diluted to 10 μM and ATP was diluted to 8 μM to prepare a similar 2× working stock. Alphascreen reaction solutions were made using beads from the anti-GST Alphascreen kit (PerkinElmer, Waltham, Mass.). Two 4× working stocks of the Alphascreen reagents were made in Alphascreen reaction buffer. In one stock, biotinylated-IP4 (Echelon Biosciences, Salt Lake City, Utah) was diluted to 40 nM and streptavidin-donor beads were diluted to 80 μg/mL. In the second stock, PIP3-binding protein (Echelon Biosciences, Salt Lake City, Utah) was diluted to 40 nM and anti-GST-acceptor beads were diluted to 80 μg/mL.
10 μL/well of the appropriate substrate 2× stock (containing 20 μM ATP for the PI3Kα and β assays and containing 8 μM ATP for the PI3Kγ and δ assays) was then added to Columns 1-24 of all plates. Plates were then incubated at room temperature for 20 minutes. In the dark, 10 μL/well of the donor bead solution was added to columns 1-24 of the plates to quench the enzyme reaction. The plates were incubated at room temperature for 30 minutes. Still in the dark, 10 μL/well of the acceptor bead solution was added to columns 1-24 of the plates. The plates were then incubated in the dark for 1.5 hours. The plates were read on an Envision multimode Plate Reader (PerkinElmer, Waltham, Mass.) using a 680 nm excitation filter and a 520-620 nm emission filter.

T1 sequence (O00329 whole entry): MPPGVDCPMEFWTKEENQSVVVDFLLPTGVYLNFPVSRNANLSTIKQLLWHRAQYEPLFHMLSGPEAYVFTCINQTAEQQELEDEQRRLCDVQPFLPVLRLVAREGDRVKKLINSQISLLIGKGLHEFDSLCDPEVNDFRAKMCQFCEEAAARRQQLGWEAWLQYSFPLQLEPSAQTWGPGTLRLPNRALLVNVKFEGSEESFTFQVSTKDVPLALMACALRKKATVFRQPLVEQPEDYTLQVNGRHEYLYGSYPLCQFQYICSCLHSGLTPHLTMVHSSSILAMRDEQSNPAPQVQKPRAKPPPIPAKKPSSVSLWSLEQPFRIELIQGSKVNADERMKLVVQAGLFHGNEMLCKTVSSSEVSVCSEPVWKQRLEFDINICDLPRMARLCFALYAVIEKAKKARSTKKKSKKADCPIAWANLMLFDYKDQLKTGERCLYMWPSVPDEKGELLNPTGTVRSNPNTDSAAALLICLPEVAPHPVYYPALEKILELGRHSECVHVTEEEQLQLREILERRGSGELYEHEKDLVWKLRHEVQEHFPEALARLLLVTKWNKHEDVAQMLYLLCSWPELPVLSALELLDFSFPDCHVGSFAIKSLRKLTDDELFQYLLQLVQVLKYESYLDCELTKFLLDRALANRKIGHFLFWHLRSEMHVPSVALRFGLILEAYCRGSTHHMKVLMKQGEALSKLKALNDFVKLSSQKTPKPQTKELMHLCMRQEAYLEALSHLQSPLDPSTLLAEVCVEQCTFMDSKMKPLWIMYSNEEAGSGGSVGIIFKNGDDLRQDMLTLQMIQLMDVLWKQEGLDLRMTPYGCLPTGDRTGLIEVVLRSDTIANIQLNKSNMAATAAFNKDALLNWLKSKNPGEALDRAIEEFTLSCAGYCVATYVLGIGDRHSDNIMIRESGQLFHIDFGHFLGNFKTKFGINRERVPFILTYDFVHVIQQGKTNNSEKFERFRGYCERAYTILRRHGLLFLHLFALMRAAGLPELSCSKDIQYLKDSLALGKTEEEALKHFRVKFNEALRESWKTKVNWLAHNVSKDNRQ
T1 sequence (P27986 whole entry partner): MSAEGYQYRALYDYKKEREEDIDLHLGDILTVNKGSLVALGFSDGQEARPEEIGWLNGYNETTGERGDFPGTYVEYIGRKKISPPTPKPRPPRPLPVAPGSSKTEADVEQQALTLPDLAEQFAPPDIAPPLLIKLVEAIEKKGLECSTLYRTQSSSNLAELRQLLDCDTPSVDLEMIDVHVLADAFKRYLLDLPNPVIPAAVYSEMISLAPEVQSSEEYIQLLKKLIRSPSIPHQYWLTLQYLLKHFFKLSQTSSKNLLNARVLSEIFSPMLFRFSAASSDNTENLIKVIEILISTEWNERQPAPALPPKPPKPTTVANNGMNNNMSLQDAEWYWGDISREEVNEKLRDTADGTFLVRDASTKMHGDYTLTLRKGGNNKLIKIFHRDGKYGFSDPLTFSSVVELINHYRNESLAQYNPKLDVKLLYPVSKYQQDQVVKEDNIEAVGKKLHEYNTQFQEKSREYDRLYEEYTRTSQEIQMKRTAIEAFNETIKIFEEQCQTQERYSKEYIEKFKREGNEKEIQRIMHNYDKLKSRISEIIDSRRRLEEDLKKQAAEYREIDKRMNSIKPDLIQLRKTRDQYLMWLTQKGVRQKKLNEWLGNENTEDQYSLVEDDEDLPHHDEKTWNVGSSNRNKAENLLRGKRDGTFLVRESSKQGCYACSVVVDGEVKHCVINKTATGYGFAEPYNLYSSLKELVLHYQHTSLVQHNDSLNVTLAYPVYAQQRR

Compared with `CC(Nc1ncnc(N)c1C#N)c1nc2ccncc2cc1-c1ccccn1` (racemic) [4-Amino-6-(((1S, 1R)-1-(3-(2-pyridinyl)-1,6-naphthyridin-2-yl)ethyl)amino)-5-pyrimidinecarbonitrile], `CC(Nc1ncnc(N)c1C#N)c1nc2ncccc2cc1-c1ccccn1` (racemic) [4-Amino-6-(((1S, 1R)-1-(3-(2-pyridinyl)-1,8-naphthyridin-2-yl)ethyl)amino)-5-pyrimidinecarbonitrile] is 2.1-fold lower in Ki: 470 nM for the first, 225 nM for the second.

Compared with `CC(Nc1ncnc2[nH]cnc12)c1nc2ccc(F)cc2cc1-c1ccccn1` (racemic) [N-(1-(6-Fluoro-3-(pyridin-2-yl)quinolin-2-yl)ethyl)-9H-purin-6-amine], `CC(Nc1ncnc(N)c1C#N)c1nc2ccc(F)cc2c(C(=O)O)c1-c1ccccn1` (stereo not drawn) [2-1-((6-Amino-5-cyano-4-pyrimidinyl)amino)ethyl)-6-fluoro-3-(2-pyridinyl)-4-quinolinecarboxylic acid] is 5.6-fold higher in Ki: 21.3 nM for the first, 119 nM for the second.

Going from `C[C@@H](Nc1ncnc(N)c1C#N)c1nc2ccc(F)cc2c(C(=O)N(C)C)c1-c1ccccn1` (stereo in doubt) [2-(1-((6-Amino-5-cyano-4-pyrimidinyl)amino)ethyl)-6-fluoro-N,N-dimethyl-3-(2-pyridinyl)-4-quinolinecarboxamide] to `CC(Nc1ncnc(N)c1C#N)c1nc2ccc(F)cc2c(C(=O)O)c1-c1ccccc1` (stereo not drawn) [2-(1-(6-Amino-5-cyanopyrimidin-4-ylamino)ethyl)-6-fluoro-3-phenylquinoline-4-carboxylic acid], the Ki rises from 7.77 nM to 74.2 nM (9.5-fold).

First: CC(Nc1ncnc(N)c1C#N)c1nc2ccc(F)cc2c([S+]([O-])CCO)c1-c1ccccc1 (stereo in doubt) [4-Amino-6-(1-(6-fluoro-4-((R)-2-hydroxyethylsulfinyl)-3-phenylquinolin-2-yl)ethylamino)pyrimidine-5-carbonitrile]
Second: C[C@@H](Nc1ncnc(N)c1C#N)c1nc2ccc(F)cc2c(C#N)c1-c1ccccc1 [2-((1R)-1-((6-Amino-5-cyano-4-pyrimidinyl)amino)ethyl)-6-fluoro-3-phenyl-4-quinolinecarbonitrile]
The Ki of the first is 24-fold lower: 2.48 nM for the first, 59.1 nM for the second. The first binds more tightly here.

Compared with `CC(Nc1ncnc(N)c1C#N)c1nc2ccc(F)cc2c(C(=O)NCC2CC2)c1-c1ccccc1` (stereo not drawn) [2-(1-(6-Amino-5-cyanopyrimidin-4-ylamino)ethyl)-N-(cyclopropylmethyl)-6-fluoro-3-phenylquinoline-4-carboxamide], `CC(Nc1ncnc(N)c1C#N)c1nc2ccc(F)cc2c(C(=O)NCCN2CCOCC2)c1-c1ccccc1` (stereo not drawn) [2-(1-((6-Amino-5-cyano-4-pyrimidinyl)amino)ethyl)-6-fluoro-N-(2-(4-morpholinyl)ethyl)-3-phenyl-4-quinolinecarboxamide] is 5-fold lower in Ki: 5.15 nM for the first, 1.02 nM for the second. The second binds more tightly here.

First: CC(Nc1ncnc(N)c1C(N)=O)c1nc2ccc(F)cc2c(C(=O)O)c1-c1ccccc1 (stereo not drawn) [2-(1-(6-amino-5-carbamoylpyrimidin-4-ylamino)ethyl)-6-fluoro-3-phenylquinoline-4-carboxylic acid]
Second: CC(Nc1ncnc(N)c1C#N)c1nc2ccc(F)cc2c(S(C)(=O)=O)c1-c1cc(F)cc(F)c1 (stereo not drawn) [4-Amino-6-(1-(3-(3,5-difluorophenyl)-6-fluoro-4-(methylsulfonyl)quinolin-2-yl)ethylamino)pyrimidine-5-carbonitrile]
The Ki of the first is 6.4-fold higher: 7.16 nM for the first, 1.12 nM for the second. The second binds more tightly here.

Compared with `C[C@@H](Nc1ncnc(N)c1C#N)c1nc2cccc(C#N)c2cc1-c1ccccn1` [2-((1R)-1-((6-amino-5-cyano-4-pyrimidinyl)amino)ethyl)-3-(2-pyridinyl)-5-quinolinecarbonitrile], `C[C@H](Nc1ncnc(N)c1C#N)c1nc2cccc(C#N)c2cc1-c1ccccn1` [2-((1S)-1-((6-Amino-5-cyano-4-pyrimidinyl)amino)ethyl)-3-(2-pyridinyl)-5-quinolinecarbonitrile] is 190-fold lower in Ki: 2640 nM for the first, 14.1 nM for the second.

In the case of `C[C@@H](c1nc2ccc(F)cc2cc1-c1cncc(F)c1)n1nc(C#N)c2c(N)ncnc21` [4-Amino-1-((S)-1-(6-fluoro-3-(5-fluoropyridin-3-yl)quinolin-2-yl)ethyl)-1H-pyrazolo[3,4-d]pyrimidine-3-carbonitrile], the Ki is reported as 25 nM.
